“Also recorded” adds a separate entry of the source.
What was measured:
[1] = tested on: C57BL/6.Fmr1 knockout mice; assay: Open field test in Fmr1 knockout mice; format: in vivo, mouse; details: 2 mg/kg i.v.
Description: Animals: C57BL/6.J. Fmr1-K02 mice, which have a deletion of the promoter and exonl of the Fmr1 gene (Mientjes et al., 2006) and C57BL/6J wild type (WT) were originated from the Jackson laboratory (Ann Harbor, USA). Mice were housed in groups (4-6 per cage) and all animals were provided with ad libitum food and water unless otherwise stated. Mice were maintained on a 12 h light/12 h dark cycle (lights off 19:00 to 7:00) in a temperature-controlled environment (21±1° C.). Testing was conducted in the light phase. Mice were housed in commercial cages and experiments were performed in line with the United Kingdom Animals (Scientific procedures) Act 1986. […]
Drug Treatment: VSN16R was dissolved in saline for injection intravenously via a tail vein using 2 mg/kg a 30 g needle in a volume of 0.1 ml. […] The eye condition (runny eyes or porphyria, ptosis), gait appearance, tremor, tail tone, reactivity to handling was assessed to detect adverse behavioural effect.
Open field: The open field apparatus was used to test multiple processes including anxiety/hyperactivity and habituation to a novel environment, in which decreased exploration as a function of repeated exposure to the same environment is taken as an index of memory. […] The number of squares entered (whole body) (locomotor activity) and rears (both front paws off the ground, but not as part of grooming) were counted. […]

BK channel [2] = molecular target: T1, BK channel (Homo sapiens, UniProt Q12791); assay: Whole-cell patch clamp, BK current and membrane potential in EA.hy926 cells; format: cell-based; parameters: The human umbilical vein derived endothelial cell line, EA.hy926; endogenous in cells; host or cells: EA.hy926 human endothelial cell line
T1 sequence (Q12791 1-1178 isoform Q12791-5): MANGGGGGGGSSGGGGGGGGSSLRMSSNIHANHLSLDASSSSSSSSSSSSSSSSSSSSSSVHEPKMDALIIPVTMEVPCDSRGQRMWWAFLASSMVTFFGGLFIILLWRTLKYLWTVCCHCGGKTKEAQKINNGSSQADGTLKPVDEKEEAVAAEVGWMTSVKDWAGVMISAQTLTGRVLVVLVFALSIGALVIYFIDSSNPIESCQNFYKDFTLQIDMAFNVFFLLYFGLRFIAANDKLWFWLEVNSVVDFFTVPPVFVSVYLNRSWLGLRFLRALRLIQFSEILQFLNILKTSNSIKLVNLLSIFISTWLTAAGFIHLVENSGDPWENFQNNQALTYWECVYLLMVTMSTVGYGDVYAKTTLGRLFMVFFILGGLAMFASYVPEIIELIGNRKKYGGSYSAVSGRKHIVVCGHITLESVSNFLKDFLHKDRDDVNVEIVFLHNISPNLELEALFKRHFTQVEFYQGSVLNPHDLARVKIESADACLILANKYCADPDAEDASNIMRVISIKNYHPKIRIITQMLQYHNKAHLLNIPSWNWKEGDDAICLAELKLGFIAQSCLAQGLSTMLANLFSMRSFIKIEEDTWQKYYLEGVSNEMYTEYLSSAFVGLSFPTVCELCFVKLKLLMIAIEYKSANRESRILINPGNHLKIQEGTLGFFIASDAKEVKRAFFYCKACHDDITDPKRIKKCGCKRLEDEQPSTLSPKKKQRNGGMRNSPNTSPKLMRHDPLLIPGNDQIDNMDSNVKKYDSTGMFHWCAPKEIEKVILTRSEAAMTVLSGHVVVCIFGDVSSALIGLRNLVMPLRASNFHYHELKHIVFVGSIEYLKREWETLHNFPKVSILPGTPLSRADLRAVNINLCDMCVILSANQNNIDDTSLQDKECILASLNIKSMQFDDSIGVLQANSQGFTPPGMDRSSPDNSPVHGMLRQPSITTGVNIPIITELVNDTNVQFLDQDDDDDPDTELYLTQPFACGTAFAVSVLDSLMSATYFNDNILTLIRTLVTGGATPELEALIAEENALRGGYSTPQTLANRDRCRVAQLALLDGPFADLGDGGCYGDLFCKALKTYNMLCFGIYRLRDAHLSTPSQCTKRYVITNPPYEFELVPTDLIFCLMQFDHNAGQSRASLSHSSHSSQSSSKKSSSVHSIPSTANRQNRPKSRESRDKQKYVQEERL
T1 sequence (Q86W47 whole entry partner): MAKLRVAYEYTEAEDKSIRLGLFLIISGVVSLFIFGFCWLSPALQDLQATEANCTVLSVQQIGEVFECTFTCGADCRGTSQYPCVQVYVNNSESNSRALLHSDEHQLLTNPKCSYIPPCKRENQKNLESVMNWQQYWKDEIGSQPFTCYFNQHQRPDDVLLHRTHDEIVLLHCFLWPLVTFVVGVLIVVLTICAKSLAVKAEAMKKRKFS
Description: (§1) The human umbilical vein derived endothelial cell line, EA.hy926 (Edgell et al., Proc Natl Acad Sci USA. 1983 June; 80(12): 3734-7) at passage >45 was grown in DMEM containing 10% FCS and 1% HAT (5 mM hypoxanthine, 20 μM aminopterin, 0.8 mM thymidine) and cells were maintained in an incubator at 37° C. in 5% CO2 atmosphere. Cells were plated on either 10 mm (for patch-clamp recordings) or 30 mm glass cover slips (for Ca^2+ measurements).
Membrane potential of EA.hy926 cells was recorded using the perforated patch clamp technique as described previously (Bondarenko et al, 2010, Br. J. Pharmacol. 161, 308-320). For membrane potential recordings from EA.hy926 cells the standard bath solution contained (in mM): 140 NaCl, 5 KCl, 1.2 MgCl2, 10 HEPES, 10 glucose, 2.4 CaCl2, patch pipettes were filled with a solution containing (in mmol/L): 140 KCl; 0.2 EGTA; 10 HEPES (pH adjusted to 7.2 using KOH). The resistance of the pipettes was 3-5 MΩ for whole cell and 6-8 MΩ for single channel recordings.

[3] = molecular target: T2, BKCa channels formed by the exon-less alpha subunit (Homo sapiens, UniProt Q12791); assay: Whole-cell BKCa current in HEK293 cells expressing the alpha subunit alone; format: cell-based; details: 20 μM
T2 construct: expressed in transfected cells; host or cells: HEK293
T2 sequence (Q12791 1-1178 isoform Q12791-5): as the sequence (Q12791 1-1178 isoform Q12791-5) above

BK channel [4] = molecular target: T1, BK channel; assay: Inside-out patch clamp (single channel) on EA.hy926 cells; format: cell-based; parameters: The human umbilical vein derived endothelial cell line, EA.hy926; endogenous in cells; host or cells: EA.hy926 human endothelial cell line
Description: as §1
Single-channel recordings were obtained from excised inside-out membrane patches in symmetrical solutions. The pipettes were filled with (in mM) 140 KCl, 10 HEPES, 1 MgCl2, 5 EGTA, 4,931 CaCl2 with pH 7.2 by adding KOH (i.e. 10 μM free Ca^2+, G. Droogmans, Leuven, Belgium; ftp://ftp.cc.kuleuven.ac.be/pub/droodmans/cabuf.zip). Cells were perfused with a standard bath solution containing (in mM) 140 NaCl, 5 KCl, 1.2 MgCl2, 10 HEPES, 10 glucose, 2.4 CaCl2. Following gigaseal formation, bath solution was switched to the following (in mM) 140 KCl, 10 HEPES, 1 MgCl2, 5 EGTA and a desired free Ca^2+ concentration which was adjusted by adding different amounts of CaCl2 calculated by the program CaBuf. pH was adjusted to 7.2 by adding KOH. Membrane currents and potential were recorded using a List EPC7 amplifier (List, Germany) and pClamp (version 8.2, Axon Instruments) software.

C[C@H](CO)NC(=O)c1cccc(/C=C\CCCC(=O)N(C)C)c1 [VSN16R]
open field activity (hyperactivity, memory) ([1]; Fmr1 knockout mice, baseline, 10 min, 24 h, 2 mg/kg): inhibits the hyperactivity and memory deficient; also recorded: movement behaviours were comparable to that observed in wildtype mice; also recorded: normalise the memory and exploratory behaviours to the level of wildtype mice
open field activity ([1]; wildtype mice): exhibit comparable movement behaviour to vehicle-treated wildtype mice
membrane potential (BK channel [2]; EA.hy926 cells): induces sustained hyperpolarisation
whole-cell BK current (BK channel [2]; human EA.hy926 cells, current blocked by paxilline): induces a BKca specific current; also recorded: induces currents that are sensitive to paxilline
enhancement of BKCa current ([3]; HEK293, steps −40 mV to +70 mV, 200 nM calcium): not responsive; also recorded: does not act on BKCa channels formed by the exon-less alpha subunit; also recorded: did not display any enhancing effect on the current; also recorded: did not affect the BKCa current at any voltage; also recorded: did not enhance BKCa currents
activation voltage / voltage-dependence of activation of BKCa current ([3]; intracellular calcium 1 μM, 200 nM, nominally 0 M): did not shift the voltage-depence of activation; also recorded: did not affect the activation voltage of BKCa current
open probability of BKca channels (BK channel [4]; EA.hy926 cells): increases the open probability of BKca channels
activation of the response of the channel (BK channel [4]; human EA.hy926 cells, calcium dependent): voltage and calcium dependent; also recorded: activation of the response of the channel
